Assay results from PMC7356157, “Shorter Antibacterial Peptide Having High Selectivity for E. coli Membranes and Low Potential for Inducing Resistance” (Microorganisms, 2020).
≈ marks a conversion by molar mass, not a printed value. Read-outs that look alike come from different tables or passages of the source. No end group written: not given here.

Key:
E. coli ATCC 25922 [1] = format: cell-based; details: for MIC E. coli 25922: broth microdilution, MHB, ~5 × 10^5 CFU/mL, 18 h, 37 °C, OD 620 nm, 100 to 0.2 µM; for MIC against E. coli 25922, MHB: no serum
E. coli ATCC 25922 [2] = assay: Bactericidal activity (MBC); format: cell-based; details: aliquots of no-growth MIC wells on LBA, 18 h, 37 °C; kills 99.9%
Experimental: (§1) Bactericidal activity was evaluated by sowing an aliquot of Luria Bertani agar (LBA) in the wells where no growth had been detected in the MIC assay.

E. coli ML35 43827 [3] = assay: Bactericidal activity (MBC); format: cell-based
Experimental: as §1

P. aeruginosa 27853 [4] = assay: MIC by broth microdilution; format: cell-based; details: MHB, 18 h, 37 °C
[5] = system: human red blood cells (hRBC); assay: Haemolytic activity (MHC); format: cell-based; details: for MHC (minimum haemolytic concentration): 5% v/v hRBC in 1X PBS, 200–0.39 µM, 1 h, 37 °C, absorbance 560 nm
Experimental: A haemolytic activity assay was used for determining whether peptides acted on hRBC membrane by calculating the minimum haemolytic concentration (MHC). Briefly, 100 µL serial dilutions of peptides were incubated in a 96-well plate with an equal volume of a fresh hRBC suspension at 5% v/v in 1X PBS (200–0.39 µM final peptide concentrations). The samples were spun at 1000× g for 5 min after having been incubated at 37 °C for 1 h and a Multiskan spectrometer (Thermo Fisher) was used for measuring 100 µL supernatant absorbance at 560 nm. Treated hRBC absorbance 0.1% Triton X-100 or 100% haemolysis was used as positive control.

E. coli ML35 43827 [6] = format: cell-based; details: broth microdilution
[7] = system: E. coli 35218 (ampicillin-resistant ATCC 35218 strain); format: cell-based; details: broth microdilution
E. coli 35218 = format: cell-based
Experimental: as §1

E. coli ATCC 11775 [8] = format: cell-based; details: broth microdilution
E. coli 25922 = assay: Antibacterial activity in the presence of human sera; format: cell-based; details: for MIC against E. coli 25922, Serum (without Pre-Incubation): peptide diluted in fresh human sera (100%), then inoculum in MHB ~5 × 10^5 CFU/mL, 18 h, 37 °C
Experimental: The second assay involved peptide dilution in fresh human sera (100%) pre-incubated for 6 h at 37 °C in a humid chamber before putting them in contact with the bacterial inoculum diluted in MHB (~5 × 10^5 CFU/mL). The assay was incubated and read as mentioned in the microdilution section.

HeLa human cell line = details: cited from earlier work
Source text: (§2) Its therapeutic index (TI) calculated for E. coli ML35 is 0.045, indicating low selectivity [[ ...

HepG2 human cell line = details: cited from earlier work
Source text: as §2

[9] = system: human red blood cells (hRBC); details: cited from earlier work
Source text: as §2

P. aeruginosa 27853 [10] = assay: Bactericidal activity (MBC); format: cell-based; details: LBA, 18 h, 37 °C
Experimental: as §1

[11] = system: E. coli N°4 (clinical isolate); details: broth microdilution; for MIC E. coli N°4: clinical isolate from urine
Experimental: (§3) The standard broth microdilution method was used for determining the peptides’ MIC [41]. […] Bacteria in Müller–Hinton broth (MHB) were used as negative control. […] The MIC was determined as the lowest peptide concentration at which bacterial growth was not detected.
(§4) Approximately 50 bacterial samples were then collected from E. coli-infected patients for evaluating activity of the peptides against some clinical isolates. These samples were identified and biochemically and metabolically characterised using the VITEK-2 equipment. Isolates were profiled regarding their resistance or susceptibility to a panel of conventionally used antibiotics.

[12] = system: E. coli N°40 (clinical isolate); details: broth microdilution; for MIC E. coli N°40: clinical isolate from blood
Experimental: as §3, §4

[13] = system: E. coli N°44 (clinical isolate); details: broth microdilution; for MIC E. coli N°44: clinical isolate from blood, ESBL (+)
Experimental: as §3, §4

[14] = system: E. coli N°44 (clinical isolate); format: cell-based
Experimental: as §1
(§5) Approximately 50 bacterial samples were then collected from E. coli-infected patients for evaluating activity of the peptides against some clinical isolates. These samples were identified and biochemically and metabolically characterised using the VITEK-2 equipment. Isolates were profiled regarding their resistance or susceptibility to a panel of conventionally used antibiotics. Three E. coli isolates having different resistance profiles were then selected following such characterisation (Appendix A): • Isolate 4 (from urine): extended spectrum beta-lactamase (ESBL) (-), resistant to ampicillin, quinolones and co-trimoxazole. • Isolate 40 (from blood): ESBL (-), resistant to ampicillin, 1st-generation cephalosporins and co-trimoxazole. • Isolate 44 (from blood): ESBL (+), resistant to aminoglycosides, quinolones, β-lactams (including 1st-, 3rd- and 4th-generation cephalosporins).

[15] = system: E. coli (ATCC strains and clinical isolates); assay: MIC summarised over several E. coli strains; format: cell-based
Experimental: The standard broth microdilution method was used for determining the peptides’ MIC [41]. Briefly, serial peptide dilutions (100 to 0.2 µM concentration) were incubated in 96-well plates at 100 μL/well final volume for 18 h at 37 °C in a damp chamber with ~5 × 10^5 CFU/mL bacterial inoculum (calculated from the calibration curve equation previously obtained for each strain (Figure S1)). Optical density (OD) was measured at 620 nm after 18 h on a microplate reader. Bacteria in Müller–Hinton broth (MHB) were used as negative control. […] The MIC was determined as the lowest peptide concentration at which bacterial growth was not detected.

E. coli ATCC 25922 [16] = assay: Potential for inducing bacterial resistance (serial subculture at 0.5 MIC); format: cell-based; details: repeated treatment with 0.5× MIC, 18 days, two independent assays in duplicate
Experimental: The MIC against this subculture was then determined by micro-dilution in broth. […] Two independent assays were carried out in duplicate. MIC changes were plotted for each subculture (day of assay).

E. coli ML35 = assay: Permeabilising internal membrane (ONPG); format: cell-based; details: 1× MIC
E. coli [17] = system: E. coli
Experimental: (§6) The checkerboard method was used for evaluating peptide antibacterial activity in combination with antibiotics [43]. […] Absorbance was measured at 620 nm and individual peptide and antibiotic MIC and combined MIC were obtained. […] The fractional inhibitory concentration index (FICI) was then calculated as the sum of peptide FIC + antibiotic FIC. A ≤ 0.5 FICI indicated synergy, 0.5 to ≤4 FICI indifference, and >4 FICI antagonism [45].
(§7) The results were interpreted by taking the lowest checkerboard FIC index (previously reported method 3) [44].

E. coli [18] = system: E. coli; remark: listed apart in the source
Experimental: as §6, §7

E. coli ATCC 11775 [19] = assay: Bactericidal activity (MBC); format: cell-based
Experimental: as §1

[20] = system: E. coli N°40 (clinical isolate); format: cell-based
Experimental: as §1, §5

[21] = system: E. coli clinical isolate 40; assay: Resistance profile of clinical isolate (VITEK-2); format: cell-based; details: Escherichia coli, isolate from blood
Source text: as §4

[22] = system: E. coli clinical isolate 44; assay: Resistance profile of clinical isolate (VITEK-2); format: cell-based; details: Escherichia coli, isolate from blood
Source text: as §4

[23] = system: E. coli clinical isolate 4; assay: Resistance profile of clinical isolate (VITEK-2); format: cell-based; details: Escherichia coli, isolate from urine
Source text: as §4

E. coli [24] = assay: microbe, parasite or virus in culture; details: Escherichia coli, read-out: Individual gentamicin MIC
Experimental: as §6, §7

Compound	MIC E. coli 25922 (E. coli ATCC 25922 [1])	MIC against E. coli 25922, MHB (E. coli ATCC 25922 [1])	MBC E. coli 25922 (E. coli ATCC 25922 [2])	MBC E. coli ML35 43827 (E. coli ML35 43827 [3])	MIC P. aeruginosa 27853 (P. aeruginosa 27853 [4])	MHC (minimum haemolytic concentration) [5]	MIC E. coli ML35 43827 (E. coli ML35 43827 [6])	MIC E. coli 35218 [7]	MBC E. coli 35218 (E. coli 35218)	MIC E. coli 11775 (E. coli ATCC 11775 [8])	MIC against E. coli 25922, Serum (without Pre-Incubation) (E. coli 25922)	MIC E. coli N°4 [11]	MIC E. coli N°40 [12]	MIC E. coli N°44 [13]	MBC E. coli N°44 [14]	fold increase in MIC over initial MIC (E. coli ATCC 25922 [16])	also measured
RYRRKKKMKKALQYIKLLKE-NH2 [Peptide 35409, reference compound]	25 µM	25 µM	50 µM	25 µM	>100 µM	1.56 µM	25 µM	6 µM	6 µM	>100 µM	25 µM						cytotoxic activity against HeLa (HeLa human cell line): did not have cytotoxic activity; cytotoxic activity against HepG2 (HepG2 human cell line): did not have cytotoxic activity; MHC against human red blood cells [9]: 1.5 µM
RKKKMKKALQYIKLLKE-NH2 [Peptide 35409-1]	25 µM	25 µM	25 µM	3 µM	100 µM	>200 µM	3 µM	6 µM	6 µM	>100 µM	12.5 µM	>100 µM	25 µM	12.5 µM	100 µM	eight-fold	MBC P. aeruginosa 27853 (P. aeruginosa 27853 [10]): 100 µM; haemolysis relative to average MIC ([5]; concentration as multiple of average MIC 14.3 µM): did not induce haemolysis at 14-fold higher concentrations; MIC against E. coli 25922, Serum (6 h Pre-Incubation) (E. coli 25922; peptide in fresh human sera (100%) pre-incubated 6 h at 37 °C before inoculum, stability read-out): 50 µM; average MIC against E. coli [15]: 14.3 µM; time at which maximum permeabilisation was reached (E. coli ML35; 1X PBS, 1.5 mM ONPG, 37 °C, 405 nm every 30 min for 4.5 h, triplicate): 1.5 h; permeabilisation of E. coli internal membrane (E. coli ML35; ONPG, 405 nm, 4.5 h): did act on E. coli internal membrane; Interpretation (E. coli [17]; peptide + ciprofloxacin): Indifference; x MIC Combination, Peptide (E. coli [17]; with ciprofloxacin, fraction of individual peptide MIC (individual = 1)): 1/1 x MIC; Interpretation (E. coli [18]; peptide + gentamicin): Indifference; x MIC Combination, Peptide (E. coli [18]; with gentamicin, fraction of individual peptide MIC (individual = 1)): 1/0.25 x MIC
KKMKKALQYIKLLK-NH2 [Peptide 35409-13]	50 µM	50 µM	50 µM	50 µM	>100 µM	>200 µM	25 µM	25 µM	100 µM	100 µM	50 µM	>100 µM	50 µM	25 µM	50 µM		MBC E. coli 11775 (E. coli ATCC 11775 [19]): > 100 µM; MBC E. coli N°40 [20]: 100 µM; FIC Index (E. coli [17]; peptide + ciprofloxacin, lowest checkerboard FIC index (method 3)): 3; FIC P (peptide) (E. coli [17]; with ciprofloxacin): 1; FIC Index (E. coli [18]; peptide + gentamicin, lowest checkerboard FIC index (method 3)): 0.75; FIC P (peptide) (E. coli [18]; with gentamicin): 0.25
CN(C)[C@@H]1C(O)=C(C(N)=O)C(=O)[C@@]2(O)C(O)=C3C(=O)c4c(O)cccc4[C@@](C)(O)[C@H]3C[C@@H]12 [Tetracycline, tetracycline, reference compound]																128 fold	
CNC(C)C1CCC(N)C(OC2C(N)CC(N)C(OC3OCC(C)(O)C(NC)C3O)C2O)O1 (stereo not drawn) [Gentamicin, gentamicin]																	MIC E. coli N°4 (antibiotics) ([11]; clinical isolate): 2 µg/mL (≈ 4.19 µM); MIC E. coli N°40 (antibiotics) ([12]; clinical isolate): 1 µg/mL (≈ 2.09 µM); MIC E. coli N°44 (antibiotics) ([13]; clinical isolate): >16 µg/mL; MIC [21]: ≤ 1 µg/mL; MIC [22]: ≥ 16 µg/mL; MIC [23]: ≤ 1 µg/mL; MIC (E. coli [24]): 0.5 µg/mL (≈ 1.05 µM)
